Biological target: T1, ER (Homo sapiens, UniProt P03372)
T1 construct: host or cells: T47D and MCF7 human breast cancer cells
T1 sequence (P03372 1-595): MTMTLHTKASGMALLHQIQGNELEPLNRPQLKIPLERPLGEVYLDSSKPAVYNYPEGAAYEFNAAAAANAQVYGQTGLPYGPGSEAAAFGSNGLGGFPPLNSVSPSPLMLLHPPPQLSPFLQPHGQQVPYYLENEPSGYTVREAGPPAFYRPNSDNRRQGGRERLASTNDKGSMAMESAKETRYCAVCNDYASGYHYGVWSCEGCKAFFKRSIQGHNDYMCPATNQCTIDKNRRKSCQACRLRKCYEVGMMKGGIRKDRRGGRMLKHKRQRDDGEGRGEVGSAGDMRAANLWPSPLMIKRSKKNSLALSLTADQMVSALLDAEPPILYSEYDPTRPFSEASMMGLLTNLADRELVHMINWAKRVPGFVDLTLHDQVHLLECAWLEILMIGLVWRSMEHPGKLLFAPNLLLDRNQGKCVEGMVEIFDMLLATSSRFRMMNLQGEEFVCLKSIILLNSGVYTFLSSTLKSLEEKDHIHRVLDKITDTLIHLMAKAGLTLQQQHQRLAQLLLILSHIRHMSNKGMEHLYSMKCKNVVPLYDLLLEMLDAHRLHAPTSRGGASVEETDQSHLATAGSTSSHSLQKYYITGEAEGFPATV
Assay: ER degradation activity, in-cell western blot analysis in T47D cells
Format: cell-based
Settings: 16 hours, Table A does not say which cell line (T47D or MCF7), read-out: Potency (DC50)
In short: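 Human T47D cells (DMEM, 10% FBS) are dosed for 16 h with 0.5% DMSO final and probed with 680- and 800-dye secondary antibodies. Relative ER is calculated against vehicle and untreated wells.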

| DC50 [nM] | SMILES |
| --- | --- |
| > 100 | O=C1CCC(N2C(=O)c3cc4c(cc3C2=O)CN(C2CCN(C(=O)C3(F)CCN(c5ccc([C@@H]6c7ccc(O)cc7CC[C@@H]6c6ccccc6)cc5)CC3)CC2)C4)C(=O)N1 (stereo partly drawn) [E 241, 2-(2,6-dioxopiperidin-3-yl)-6-(1-(4-fluoro-1-(4-((1R,2S)-6-hydroxy-2-phenyl-1,2,3,4-tetrahydronaphthalen-1-yl)phenyl)piperidine-4-carbonyl)piperidin-4-yl)-6,7-dihydropyrrolo[3,4-f]isoindole-1,3(2H,5H)-dione] |
| 10 to 100 | CCC(=C(c1ccc(O)cc1)c1ccc(N2CCC3(CC2)CN(C(=O)CN2Cc4cc5c(cc4C2)C(=O)N(C2CCC(=O)NC2=O)C5=O)C3)cc1)c1ccccc1 (stereo not shown) [E 242, 2-(2,6-dioxopiperidin-3-yl)-6-(2-(7-(4-(1-(4-hydroxyphenyl)-2-phenylbut-1-en-1-yl)phenyl)-2,7-diazaspiro[3.5]nonan-2-yl)-2-oxoethyl)-6,7-dihydropyrrolo[3,4-f]isoindole-1,3(2H,5H)-dione] |
| < 10 | C[C@@H]1Cc2c([nH]c3ccccc23)[C@@H](c2c(F)cc(N3CCC(CN4CCC(N5Cc6cc7c(cc6C5)C(=O)N(C5CCC(=O)NC5=O)C7=O)CC4)CC3)cc2F)N1CC(F)F (stereo partly drawn) [E 251, 6-(1-((1-(4-((1R,3R)-2-(2,2-difluoroethyl)-3-methyl-2,3,4,9-tetrahydro-1H-pyrido[3,4-b]indol-1-yl)-3,5-difluorophenyl)piperidin-4-yl)methyl)piperidin-4-yl)-2-(2,6-dioxopiperidin-3-yl)-6,7-dihydropyrrolo[3,4-f]isoindole-1,3(2H,5H)-dione] |
| < 10 | C[C@@H]1Cc2c([nH]c3ccccc23)[C@@H](c2c(F)cc(N3CCC(C(=O)N4CCC(N5Cc6cc7c(cc6C5)C(=O)N(C5CCC(=O)NC5=O)C7=O)CC4)CC3)cc2F)N1CC(C)(F)F (stereo partly drawn) [E 252, 6-(1-(1-(4-((1R,3R)-2-(2,2-difluoropropyl)-3-methyl-2,3,4,9-tetrahydro-1H-pyrido[3,4-b]indol-1-yl)-3,5-difluorophenyl)piperidine-4-carbonyl)piperidin-4-yl)-2-(2,6-dioxopiperidin-3-yl)-6,7-dihydropyrrolo[3,4-f]isoindole-1,3(2H,5H)-dione] |
| < 10 | C[C@@H]1Cc2c([nH]c3ccccc23)[C@@H](c2c(F)cc(N3CCC4(CCN(C(=O)CN5Cc6cc7c(cc6C5)C(=O)N(C5CCC(=O)NC5=O)C7=O)CC4)CC3)cc2F)N1CC(C)(F)F (stereo partly drawn) [E 253, 6-(2-(9-(4-((1R,3R)-2-(2,2-difluoropropyl)-3-methyl-2,3,4,9-tetrahydro-1H-pyrido[3,4-b]indol-1-yl)-3,5-difluorophenyl)-3,9-diazaspiro[5.5]undecan-3-yl)-2-oxoethyl)-2-(2,6-dioxopiperidin-3-yl)-6,7-dihydropyrrolo[3,4-f]isoindole-1,3(2H,5H)-dione] |
| < 10 | C[C@@H]1Cc2c([nH]c3ccccc23)[C@@H](c2cnc(N3CCC4(CCN(C(=O)CN5Cc6cc7c(cc6C5)C(=O)N(C5CCC(=O)NC5=O)C7=O)CC4)CC3)nc2)N1CC(F)(F)F (stereo partly drawn) [E 254, 2-(2,6-dioxopiperidin-3-yl)-6-(2-(9-(5-((1R,3R)-3-methyl-2-(2,2,2-trifluoroethyl)-2,3,4,9-tetrahydro-1H-pyrido[3,4-b]indol-1-yl)pyrimidin-2-yl)-3,9-diazaspiro[5.5]undecan-3-yl)-2-oxoethyl)-6,7-dihydropyrrolo[3,4-f]isoindole-1,3(2H,5H)-dione] |
| < 10 | C[C@@H]1Cc2c([nH]c3ccccc23)[C@@H](c2cnc(N3CCC4(CC3)CN(C(=O)CN3Cc5cc6c(cc5C3)C(=O)N(C3CCC(=O)NC3=O)C6=O)C4)nc2)N1CC(F)(F)F (stereo partly drawn) [E 255, 2-(2,6-dioxopiperidin-3-yl)-6-(2-(7-(5-((1R,3R)-3-methyl-2-(2,2,2-trifluoroethyl)-2,3,4,9-tetrahydro-1H-pyrido[3,4-b]indol-1-yl)pyrimidin-2-yl)-2,7-diazaspiro[3.5]nonan-2-yl)-2-oxoethyl)-6,7-dihydropyrrolo[3,4-f]isoindole-1,3(2H,5H)-dione] |
| 10 to 100 | C[C@@H]1Cc2c([nH]c3ccccc23)[C@@H](c2cnc(N3CCC(CN4CCC(N5Cc6cc7c(cc6C5)C(=O)N(C5CCC(=O)NC5=O)C7=O)CC4)CC3)nc2)N1CC(F)(F)F (stereo partly drawn) [E 256, 2-(2,6-dioxopiperidin-3-yl)-6-(1-((1-(5-((1R,3R)-3-methyl-2-(2,2,2-trifluoroethyl)-2,3,4,9-tetrahydro-1H-pyrido[3,4-b]indol-1-yl)pyrimidin-2-yl)piperidin-4-yl)methyl)piperidin-4-yl)-6,7-dihydropyrrolo[3,4-f]isoindole-1,3(2H,5H)-dione] |
| < 10 | C[C@@H]1Cc2c([nH]c3ccccc23)[C@@H](c2cnc(N3CCC(C(=O)N4CCC(N5Cc6cc7c(cc6C5)C(=O)N(C5CCC(=O)NC5=O)C7=O)CC4)CC3)nc2)N1CC(F)(F)F (stereo partly drawn) [E 257, 2-(2,6-dioxopiperidin-3-yl)-6-(1-(1-(5-((1R,3R)-3-methyl-2-(2,2,2-trifluoroethyl)-2,3,4,9-tetrahydro-1H-pyrido[3,4-b]indol-1-yl)pyrimidin-2-yl)piperidine-4-carbonyl)piperidin-4-yl)-6,7-dihydropyrrolo[3,4-f]isoindole-1,3(2H,5H)-dione] |
| < 10 | C[C@@H]1Cc2c([nH]c3ccccc23)[C@@H](c2cnc(N3CCC4(CCN(C(=O)CN5Cc6cc7c(cc6C5)C(=O)N(C5CCC(=O)NC5=O)C7=O)CC4)CC3)nc2)N1CC(F)F (stereo partly drawn) [E 258, 6-(2-(9-(5-((1R,3R)-2-(2,2-difluoroethyl)-3-methyl-2,3,4,9-tetrahydro-1H-pyrido[3,4-b]indol-1-yl)pyrimidin-2-yl)-3,9-diazaspiro[5.5]undecan-3-yl)-2-oxoethyl)-2-(2,6-dioxopiperidin-3-yl)-6,7-dihydropyrrolo[3,4-f]isoindole-1,3(2H,5H)-dione] |
| < 10 | C[C@@H]1Cc2c([nH]c3ccccc23)[C@@H](c2cnc(N3CCC4(CC3)CN(C(=O)CN3Cc5cc6c(cc5C3)C(=O)N(C3CCC(=O)NC3=O)C6=O)C4)nc2)N1CC(F)F (stereo partly drawn) [E 259, 6-(2-(7-(5-((1R,3R)-2-(2,2-difluoroethyl)-3-methyl-2,3,4,9-tetrahydro-1H-pyrido[3,4-b]indol-1-yl)pyrimidin-2-yl)-2,7-diazaspiro[3.5]nonan-2-yl)-2-oxoethyl)-2-(2,6-dioxopiperidin-3-yl)-6,7-dihydropyrrolo[3,4-f]isoindole-1,3(2H,5H)-dione] |
| < 10 | C[C@@H]1Cc2c([nH]c3ccccc23)[C@@H](c2cnc(N3CCC(C(=O)N4CCC(N5Cc6cc7c(cc6C5)C(=O)N(C5CCC(=O)NC5=O)C7=O)CC4)CC3)nc2)N1CC(F)F (stereo partly drawn) [E 260, 6-(1-(1-(5-((1R,3R)-2-(2,2-difluoroethyl)-3-methyl-2,3,4,9-tetrahydro-1H-pyrido[3,4-b]indol-1-yl)pyrimidin-2-yl)piperidine-4-carbonyl)piperidin-4-yl)-2-(2,6-dioxopiperidin-3-yl)-6,7-dihydropyrrolo[3,4-f]isoindole-1,3(2H,5H)-dione] |
| 10 to 100 | C[C@@H]1Cc2c([nH]c3ccccc23)[C@@H](c2cnc(N3CCC(CN4CCC(N5Cc6cc7c(cc6C5)C(=O)N(C5CCC(=O)NC5=O)C7=O)CC4)CC3)nc2)N1CC(F)F (stereo partly drawn) [E 261, 6-(1-((1-(5-((1R,3R)-2-(2,2-difluoroethyl)-3-methyl-2,3,4,9-tetrahydro-1H-pyrido[3,4-b]indol-1-yl)pyrimidin-2-yl)piperidin-4-yl)methyl)piperidin-4-yl)-2-(2,6-dioxopiperidin-3-yl)-6,7-dihydropyrrolo[3,4-f]isoindole-1,3(2H,5H)-dione] |
